# In patent US20020137929A1, “1 - (3-heterocyclylphenyl) isothiourea, -isourea, -guanidine and -amidine herbicidal agents” (Intellectual Property Department, BASF Aktiengesellschaft, priority 1998, published 2002):
# Columns and labels:
# ABUTH (Velvetleaf) [1] = assay: Postemergence herbicidal evaluation; assay type: in vivo, Abutilon theophrasti; conditions: for ABUTH herbicidal rating: postemergence
# How it was run: (§1)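 ~2-wk seedlings; postemergence spray, 40 psi; vehicle 1:1 acetone:water + 0.5% Tween 20; rate ≈0.0156–0.500 kg/ha; greenhouse hold; scored 4–5 wk after treatment, 0–9 scale vs control; repeat tests averaged.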
# [2] = test system: IPOHE (Morningglory, Ivyleaf); assay: Postemergence herbicidal evaluation; assay type: in vivo, Ipomoea hederacea; conditions: for IPOHE herbicidal rating: postemergence
# How it was run: as §1
# SETVI (Foxtail, Green) = assay: Postemergence herbicidal evaluation; assay type: in vivo, Setaria viridis; conditions: for SETVI herbicidal rating: postemergence
# How it was run: as §1
# [3] = test system: GLXMAW (Soybean, Williams); assay: Postemergence herbicidal evaluation; assay type: in vivo, Glycine max, (L.) Merr. cv Williams; conditions: for GLXMAW herbicidal rating: postemergence
# How it was run: as §1
# ZEAMX (Corn, Field) = assay: Postemergence herbicidal evaluation; assay type: in vivo, Zea mays; conditions: for ZEAMX herbicidal rating: postemergence
# How it was run: as §1
# ABUTH (Velvetleaf) [4] = assay: Preemergence herbicidal evaluation; assay type: in vivo, Abutilon theophrasti; conditions: rated 4-5 weeks after treatment
# How it was run: (§2)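 Visual 0-9 rating vs control (stand, vigor, malformation, size, chlorosis, overall appearance), scored 4-5 wk after spraying. Seeded soil cups were treated preemergence with compound in aqueous acetone, ~0.0156-0.500 kg/ha equivalent.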
# AMBEL (Ragweed, Common) = assay: Preemergence herbicidal evaluation; assay type: in vivo, Ambrosia artemisifolia; conditions: rated 4-5 weeks after treatment
# How it was run: as §2
# CASOB (Sicklepod) = assay: Preemergence herbicidal evaluation; assay type: in vivo, Cassia obtusifolia; conditions: rated 4-5 weeks after treatment
# How it was run: as §2
# [5] = test system: IPOHE (Morningglory, Ivyleaf); assay: Preemergence herbicidal evaluation; assay type: in vivo, Ipomoea hederacea; conditions: rated 4-5 weeks after treatment
# How it was run: as §2
# ECHCG (Barnyardgrass) = assay: Preemergence herbicidal evaluation; assay type: in vivo, Echinochloa crus-galli; conditions: rated 4-5 weeks after treatment
# How it was run: as §2
# [6] = test system: ECHORC (Watergrass (Calif.)); assay: Preemergence weed control under flooded paddy conditions; assay type: in vivo, Echinochloa oryzoides; conditions: rated 3-4 weeks after treatment
# How it was run: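 Ratings on a 0-9 visual scale cover stand, vigor, malformation, size, chlorosis and overall appearance relative to a control, taken three to four weeks post-treatment. Application was into flood water over freshly sown silt loam at roughly 0.0313 to 0.500 kg/ha.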
# CYPSE (Flatsedge) = assay: as above; assay type: in vivo, Cyperus serotinus; conditions: rated 3-4 weeks after treatment
# How it was run: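 Seeds or propagules sown in silt loam kept flooded 1.5-3 cm; compounds in 50/50 acetone/water pipetted into flood water at about 0.0313 to 0.500 kg/ha. Greenhouse; visual 0-9 rating versus untreated control 3-4 weeks after treatment.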
# [7] = test system: ECHORC (Watergrass (Calif.)); assay: Postemergence weed control under flooded paddy conditions; assay type: in vivo, Echinochloa oryzoides; conditions: postemergence weeds, 3-4 weeks after treatment
# How it was run: (§3)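 Herbicidal effect is judged by eye on a 0–9 scale versus control, 3–4 weeks after dosing. Dosing is into flood water kept 1.5–3 cm over the soil, at about 0.0313–0.500 kg/ha in aqueous/acetone 50/50 v/v, on 3–5 cm weeds and 1.5–2.5-leaf rice seedlings.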
# CYPIR (Rice Flatsedge) = assay: as above; assay type: in vivo, Cyperus iria; conditions: postemergence weeds, 3-4 weeks after treatment
# How it was run: as §3
structure (smiles),measurement,setting,value
"CCOC(=O)CN1C(=O)C(=C(C)C)S/C1=N/c1cc(-n2c(=O)cc(C(F)(F)F)n(C)c2=O)c(F)cc1Cl [Compound 20, Ethyl 2-{{2-chloro-5-[3,6-dihydro-3-methyl-2,6-dioxo-4-(trifluoromethyl)-1(2H)-pyrimidinyl]-4-fluorophenyl}imino}-5-isopropylidene-4-oxo-3-thiazolidineacetate]",ABUTH herbicidal rating,ABUTH (Velvetleaf) [1]; rate 0.0158 kg/ha,9.0
same,ABUTH herbicidal rating,ABUTH (Velvetleaf) [1]; rate 0.0315 kg/ha,9.0
same,ABUTH herbicidal rating,ABUTH (Velvetleaf) [1]; rate 0.0630 kg/ha,9.0
same,IPOHE herbicidal rating,[2]; rate 0.0158 kg/ha,9.0
same,IPOHE herbicidal rating,[2]; rate 0.0315 kg/ha,3.0
same,IPOHE herbicidal rating,[2]; rate 0.0630 kg/ha,9.0
same,SETVI herbicidal rating,"SETVI (Foxtail, Green); rate 0.0158 kg/ha",1.0
same,SETVI herbicidal rating,"SETVI (Foxtail, Green); rate 0.0315 kg/ha",1.0
same,SETVI herbicidal rating,"SETVI (Foxtail, Green); rate 0.0630 kg/ha",4.0
same,GLXMAW herbicidal rating,[3]; rate 0.0158 kg/ha,3.5
same,GLXMAW herbicidal rating,[3]; rate 0.0315 kg/ha,4.0
same,GLXMAW herbicidal rating,[3]; rate 0.0630 kg/ha,5.5
same,ZEAMX herbicidal rating,"ZEAMX (Corn, Field); rate 0.0158 kg/ha",4.5
same,ZEAMX herbicidal rating,"ZEAMX (Corn, Field); rate 0.0315 kg/ha",5.0
same,ZEAMX herbicidal rating,"ZEAMX (Corn, Field); rate 0.0630 kg/ha",5.5
same,ABUTH preemergence herbicidal rating,ABUTH (Velvetleaf) [4]; rate 0.0625 kg/ha,0.0
same,ABUTH preemergence herbicidal rating,ABUTH (Velvetleaf) [4]; rate 0.1250 kg/ha,9.0
same,ABUTH preemergence herbicidal rating,ABUTH (Velvetleaf) [4]; rate 0.2500 kg/ha,9.0
same,AMBEL preemergence herbicidal rating,"AMBEL (Ragweed, Common); rate 0.0625 kg/ha",0.0
same,AMBEL preemergence herbicidal rating,"AMBEL (Ragweed, Common); rate 0.1250 kg/ha",0.0
same,AMBEL preemergence herbicidal rating,"AMBEL (Ragweed, Common); rate 0.2500 kg/ha",3.0
same,CASOB preemergence herbicidal rating,CASOB (Sicklepod); rate 0.0625 kg/ha,0.0
same,CASOB preemergence herbicidal rating,CASOB (Sicklepod); rate 0.1250 kg/ha,0.0
same,CASOB preemergence herbicidal rating,CASOB (Sicklepod); rate 0.2500 kg/ha,9.0
same,IPOHE preemergence herbicidal rating,[5]; rate 0.0625 kg/ha,0.0
same,IPOHE preemergence herbicidal rating,[5]; rate 0.1250 kg/ha,0.0
same,IPOHE preemergence herbicidal rating,[5]; rate 0.2500 kg/ha,2.0
same,ECHCG preemergence herbicidal rating,ECHCG (Barnyardgrass); rate 0.0625 kg/ha,0.0
same,ECHCG preemergence herbicidal rating,ECHCG (Barnyardgrass); rate 0.1250 kg/ha,0.0
same,ECHCG preemergence herbicidal rating,ECHCG (Barnyardgrass); rate 0.2500 kg/ha,0.0
same,Herbicidal rating ECHORC,[6]; 0.1160 kg/ha,7.0
same,Herbicidal rating ECHORC,[6]; 0.2310 kg/ha,7.0
same,Herbicidal rating ECHORC,[6]; 0.4630 kg/ha,7.0
same,Herbicidal rating CYPSE,CYPSE (Flatsedge); 0.1160 kg/ha,5.0
same,Herbicidal rating CYPSE,CYPSE (Flatsedge); 0.2310 kg/ha,5.0
same,Herbicidal rating CYPSE,CYPSE (Flatsedge); 0.4630 kg/ha,5.0
same,Herbicidal rating ECHORC,[7]; rate 0.1160 kg/ha,7.0
same,Herbicidal rating ECHORC,[7]; rate 0.2310 kg/ha,7.0
same,Herbicidal rating ECHORC,[7]; rate 0.4630 kg/ha,7.0
same,Herbicidal rating CYPIR,CYPIR (Rice Flatsedge); rate 0.1160 kg/ha,0.0
same,Herbicidal rating CYPIR,CYPIR (Rice Flatsedge); rate 0.2310 kg/ha,0.0
same,Herbicidal rating CYPIR,CYPIR (Rice Flatsedge); rate 0.4630 kg/ha,0.0
"C=CCN1C(=O)C(CC(=O)Nc2ccccc2)SC1=Nc1cc(-n2c(=O)cc(C(F)(F)F)n(C)c2=O)c(F)cc1Cl (stereo not drawn) [Compound 44, 3-Allyl-2-{{2-chloro-5-[3,6-dihydro-3-methyl-2,6-dioxo-4-(trifluoromethyl)-1(2H)-pyrimidinyl]-4-fluorophenyl}imino}-4-oxo-5-thiazolidineacetanilide]",Postemergence herbicidal rating ABUTH,ABUTH (Velvetleaf) [1]; Rate 0.0156 kg/ha,9.0
same,Postemergence herbicidal rating ABUTH,ABUTH (Velvetleaf) [1]; Rate 0.0313 kg/ha,7.0
same,Postemergence herbicidal rating ABUTH,ABUTH (Velvetleaf) [1]; Rate 0.0625 kg/ha,9.0
same,Postemergence herbicidal rating ABUTH,ABUTH (Velvetleaf) [1]; Rate 0.1250 kg/ha,9.0
same,Postemergence herbicidal rating IPOHE,[2]; Rate 0.0156 kg/ha,9.0
same,Postemergence herbicidal rating IPOHE,[2]; Rate 0.0313 kg/ha,9.0
same,Postemergence herbicidal rating IPOHE,[2]; Rate 0.0625 kg/ha,9.0
same,Postemergence herbicidal rating IPOHE,[2]; Rate 0.1250 kg/ha,9.0
same,Postemergence herbicidal rating SETVI,"SETVI (Foxtail, Green); Rate 0.0156 kg/ha",0.0
same,Postemergence herbicidal rating SETVI,"SETVI (Foxtail, Green); Rate 0.0313 kg/ha",0.0
same,Postemergence herbicidal rating SETVI,"SETVI (Foxtail, Green); Rate 0.0625 kg/ha",2.0
same,Postemergence herbicidal rating SETVI,"SETVI (Foxtail, Green); Rate 0.1250 kg/ha",2.0
same,Postemergence herbicidal rating GLXMAW,[3]; Rate 0.0156 kg/ha,4.5
same,Postemergence herbicidal rating GLXMAW,[3]; Rate 0.0313 kg/ha,5.0
same,Postemergence herbicidal rating GLXMAW,[3]; Rate 0.0625 kg/ha,5.5
same,Postemergence herbicidal rating GLXMAW,[3]; Rate 0.1250 kg/ha,6.0
same,Postemergence herbicidal rating ZEAMX,"ZEAMX (Corn, Field); Rate 0.0156 kg/ha",5.0
same,Postemergence herbicidal rating ZEAMX,"ZEAMX (Corn, Field); Rate 0.0313 kg/ha",5.0
same,Postemergence herbicidal rating ZEAMX,"ZEAMX (Corn, Field); Rate 0.0625 kg/ha",5.0
same,Postemergence herbicidal rating ZEAMX,"ZEAMX (Corn, Field); Rate 0.1250 kg/ha",5.0
same,Preemergence herbicidal rating ABUTH,ABUTH (Velvetleaf) [4]; rate 0.0156 kg/ha,0.0
same,Preemergence herbicidal rating ABUTH,ABUTH (Velvetleaf) [4]; rate 0.0313 kg/ha,0.0
same,Preemergence herbicidal rating ABUTH,ABUTH (Velvetleaf) [4]; rate 0.0625 kg/ha,0.0
same,Preemergence herbicidal rating ABUTH,ABUTH (Velvetleaf) [4]; rate 0.1250 kg/ha,9.0
same,Preemergence herbicidal rating ABUTH,ABUTH (Velvetleaf) [4]; rate 0.2500 kg/ha,9.0
same,Preemergence herbicidal rating ABUTH,ABUTH (Velvetleaf) [4]; rate 0.5000 kg/ha,9.0
same,Preemergence herbicidal rating AMBEL,"AMBEL (Ragweed, Common); rate 0.0156 kg/ha",0.0
same,Preemergence herbicidal rating AMBEL,"AMBEL (Ragweed, Common); rate 0.0313 kg/ha",0.0
same,Preemergence herbicidal rating AMBEL,"AMBEL (Ragweed, Common); rate 0.0625 kg/ha",0.0
same,Preemergence herbicidal rating AMBEL,"AMBEL (Ragweed, Common); rate 0.1250 kg/ha",0.0
same,Preemergence herbicidal rating AMBEL,"AMBEL (Ragweed, Common); rate 0.2500 kg/ha",2.0
same,Preemergence herbicidal rating AMBEL,"AMBEL (Ragweed, Common); rate 0.5000 kg/ha",4.0
same,Preemergence herbicidal rating CASOB,CASOB (Sicklepod); rate 0.0156 kg/ha,0.0
same,Preemergence herbicidal rating CASOB,CASOB (Sicklepod); rate 0.0313 kg/ha,0.0
same,Preemergence herbicidal rating CASOB,CASOB (Sicklepod); rate 0.0625 kg/ha,0.0
same,Preemergence herbicidal rating CASOB,CASOB (Sicklepod); rate 0.1250 kg/ha,1.0
same,Preemergence herbicidal rating CASOB,CASOB (Sicklepod); rate 0.2500 kg/ha,0.0
same,Preemergence herbicidal rating CASOB,CASOB (Sicklepod); rate 0.5000 kg/ha,1.0
same,Preemergence herbicidal rating IPOHE,[5]; rate 0.0156 kg/ha,0.0
same,Preemergence herbicidal rating IPOHE,[5]; rate 0.0313 kg/ha,0.0
same,Preemergence herbicidal rating IPOHE,[5]; rate 0.0625 kg/ha,0.0
same,Preemergence herbicidal rating IPOHE,[5]; rate 0.1250 kg/ha,1.0
same,Preemergence herbicidal rating IPOHE,[5]; rate 0.2500 kg/ha,0.0
same,Preemergence herbicidal rating IPOHE,[5]; rate 0.5000 kg/ha,0.0
same,Preemergence herbicidal rating ECHCG,ECHCG (Barnyardgrass); rate 0.0156 kg/ha,0.0
same,Preemergence herbicidal rating ECHCG,ECHCG (Barnyardgrass); rate 0.0313 kg/ha,0.0
same,Preemergence herbicidal rating ECHCG,ECHCG (Barnyardgrass); rate 0.0625 kg/ha,0.0
same,Preemergence herbicidal rating ECHCG,ECHCG (Barnyardgrass); rate 0.1250 kg/ha,0.0
same,Preemergence herbicidal rating ECHCG,ECHCG (Barnyardgrass); rate 0.2500 kg/ha,0.0
same,Preemergence herbicidal rating ECHCG,ECHCG (Barnyardgrass); rate 0.5000 kg/ha,0.0
same,Herbicidal rating ECHORC,[6]; 0.0313 kg/ha,6.0
same,Herbicidal rating ECHORC,[6]; 0.0625 kg/ha,6.0
same,Herbicidal rating ECHORC,[6]; 0.1250 kg/ha,7.0
same,Herbicidal rating ECHORC,[6]; 0.2500 kg/ha,8.0
same,Herbicidal rating CYPSE,CYPSE (Flatsedge); 0.0313 kg/ha,0.0
same,Herbicidal rating CYPSE,CYPSE (Flatsedge); 0.0625 kg/ha,0.0
same,Herbicidal rating CYPSE,CYPSE (Flatsedge); 0.1250 kg/ha,0.0
same,Herbicidal rating CYPSE,CYPSE (Flatsedge); 0.2500 kg/ha,0.0
same,Herbicidal rating ECHORC,[7]; rate 0.0313 kg/ha,6.0
same,Herbicidal rating ECHORC,[7]; rate 0.0625 kg/ha,6.0
same,Herbicidal rating ECHORC,[7]; rate 0.1250 kg/ha,7.0
same,Herbicidal rating ECHORC,[7]; rate 0.2500 kg/ha,8.0
same,Herbicidal rating CYPIR,CYPIR (Rice Flatsedge); rate 0.0313 kg/ha,5.0
same,Herbicidal rating CYPIR,CYPIR (Rice Flatsedge); rate 0.0625 kg/ha,6.0
same,Herbicidal rating CYPIR,CYPIR (Rice Flatsedge); rate 0.1250 kg/ha,6.0
same,Herbicidal rating CYPIR,CYPIR (Rice Flatsedge); rate 0.2500 kg/ha,9.0
